Data on one molecule can be found in patent publication US9308284B2, “Formulations of fluorinated stilbene suitable for PET imaging” (PIRAMAL IMAGING SA, priority 2011, dated 2016).

Data set [1] can be described thus: Stability of Formulation 1 comprising HCl salt of Compound 1 for 12 hours at room temperature. Type of data set: physicochemical. As to the method:
The term “concentration interval of compound 2” as used herein is corrected for the decay of fluorine-18.
Formulation 1 was prepared containing 3 μg/mL of Compound 1 (according to 3.3 μg/mL HCl salt of compound 1). The assay was analysed after preparation and after 12 hours storage according to the short shelf life of PET imaging tracer, typically expected between 6 and 10 hours. Eight individual batches were prepared and analysed for assay.
Table 1 indicates the results of stability testing after 12 hours of n=8 individually manufactured batches.
Minisart HY 0.2 μm is a sterile filter with PTFE hydrophobic membrane.

Data set [2] can be described thus: Hydrophobic filters and adsorption: Compound 1 concentration before and after sterile filtration of 10 mL Formulation 1. Type of data set: physicochemical. The conditions noted are these: for Filtrate (%) / Adsorption: n=6. As to the method: Formulation 1 comprising compound 1 was prepared as indicated above and filtered using selected sterile filters. Adsorption of compound 1 was determined by measuring the concentration of Compound 1 before and after filtration of 10 mL of Formulation 1 and subsequent calculation of the adsorption. Table 2 indicates the results of adsorption experiments using different filters.

Where [3] appears, read: Formulation 1, Pall HP2002 0.2 μm, Versapor R hydrophobic.

On to `CNc1ccc(/C=C/c2ccc(OCCOCCOCCF)cc2)cc1` [Compound 1], for which, in data set [1] (Formulation 1, 3 μg/mL Compound 1 (3.3 μg/mL HCl salt), 12 h storage at RT, n=8 batches), the “Visual Inspection” value is “clear”. For the same molecule, in data set [1] (Formulation 1, 12 h at RT, n=8, Minisart HY 0.2 μm), the ΔFiltration in % was found to be 1.9%. For the same molecule, the “Content of Compound 1 in % after 12 h, after filtration (Minisart HY 0.2 μm)” value in data set [1] (Formulation 1, 12 h at RT, n=8, PTFE sterile filter, relative to concentration after preparation) is listed as 97.0%. Besides, the “Content of Compound 1 in % after 12 h, prior filtration” value in data set [1] (Formulation 1, 12 h at RT, n=8, relative to concentration after preparation (2.97 to 3.14 μg/mL)) was 98.9%. The “Chemical stability in the formulation” value in data set [1] (Formulation 1, 12 hours, RT) is given as “chemically stable”. Besides, the “Filtrate (%)” value in data set [2] (Formulation 1, Millex GV 0.22 μm (Millipore, SLGV033RS), PVDF) worked out at 94.0 ± 0.7%; in data set [2] (Formulation 1, Minisart HY 0.2 μm (Sartorius Stedim, 16596-HYK), PTFE), 98.8 ± 0.6%; in data set [2] (Formulation 1, Minisart High Flow 0.2 μm (Sartorius Stedim, 16532), polyethersulfone), 63.9 ± 1.8%; in data set [2] (Formulation 1, Minisart SRP25 0.2 μm (Sartorius Stedim, 17575), PTFE), 99.4 ± 0.3%; in data set [2] (setting [3]), 85.8 ± 0.3%. Further, the Adsorption is on record as 6.0% in data set [2] (Formulation 1, Millex GV 0.22 μm (SLGV033RS), PVDF); 1.2% in data set [2] (Formulation 1, Minisart HY 0.2 μm (16596-HYK), PTFE); 36.1% in data set [2] (Formulation 1, Minisart High Flow 0.2 μm (16532), polyethersulfone); 0.6% in data set [2] (Formulation 1, Minisart SRP25 0.2 μm (17575), PTFE); 14.2% in data set [2] (setting [3]). The “Amount of compound 1 adsorbed onto the filter material” value in data set [2] (filter units containing PTFE and PVDF) was “low amount”.
